Assay results taken from patent publication US8293769B2, “CSF-1R inhibitors, compositions, and methods of use” (Novartis AG, priority 2008, dated 2012).

How the values were obtained:
PDGFRb = target: T1, PDGFRb (Homo sapiens, UniProt P09619); experiment: PDGFRb kinase in vitro biochemical assay (alphascreen); conditions: tested at about 1 μM; read-out: PDGF RK BETA percent inhibition
T1 construct: The kinase domain of PDGFRβ was assayed in 50 mM Hepes; purchased Invitrogen P3082
Description: (§1) The IC50 values for the inhibition of RTKs were determined in the alphascreen format measuring the inhibition by compound of phosphate transfer to a substrate by the respective enzyme. Briefly, the respective RTK domain purchased as human recombinant protein (cKIT Upstate #14-559, PDGFRb Invitrogen #P3082) were incubated with serial dilutions of compound in the presence of substrate and ATP concentrations within 3 times the Km of the enzyme.
(§2) The kinase domain of cKIT was assayed in 50 mM Hepes, pH=7.5, 5 mM MgCl2, 10 mM MnCl2, 1 mM DTT, 0.1% BSA with 0.06 uM biotinylated peptide substrate (GGLFDDPSYVNVQNL-NH2) and 15 uM ATP (ATP KM apparent=15 uM). The kinase domain of PDGFRβ was assayed in 50 mM Hepes, pH=7.5, 20 mM MgCl2, 1 mM DTT, 0.1% BSA with 0.1 uM biotinylated peptide substrate (GGLFDDPSYVNVQNL-NH2) and 10 uM ATP (ATP KM apparent=25 uM). Reactions were incubated at room temperature for 3 to 4 hr and stopped with buffer (20 mM EDTA, 0.01% Tween-20 for both PDGFRb and cKIT). Alphascreen PY20 beads were added to the stopped cKIT reactions and PY20 Ab/Protein A Alphascreen beads were added to the PDGFRβ stopped reactions. Both reactions were incubated overnight and read on the Alphascreen reader. The concentration of compound for 50% inhibition (IC50) was calculated employing non-linear regression using XL-Fit data analysis software. As a control compound, staurosporine is run in every assay and a Z′>0.5 is required to validate results.

cKIT = target: T2, cKIT (Homo sapiens, UniProt P10721); experiment: cKIT kinase in vitro biochemical assay (alphascreen); conditions: tested at about 1 μM; read-out: CKIT percent inhibition
T2 construct: The kinase domain of cKIT was assayed in 50 mM Hepes; purchased Upstate 14-559
T2 sequence (P10721 589-937 limits assumed): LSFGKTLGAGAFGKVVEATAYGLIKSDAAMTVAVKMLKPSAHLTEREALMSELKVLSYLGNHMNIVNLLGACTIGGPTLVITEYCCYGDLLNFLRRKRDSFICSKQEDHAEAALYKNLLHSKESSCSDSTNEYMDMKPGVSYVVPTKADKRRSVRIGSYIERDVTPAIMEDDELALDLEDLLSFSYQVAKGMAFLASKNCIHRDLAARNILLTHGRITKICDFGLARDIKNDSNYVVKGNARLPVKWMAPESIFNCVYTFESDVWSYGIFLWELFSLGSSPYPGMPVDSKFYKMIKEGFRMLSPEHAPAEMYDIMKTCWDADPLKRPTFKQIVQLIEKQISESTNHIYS
Description: as §1, §2

[1] = target: T3, cytoplasmic domain of the human CSF-1R (Homo sapiens, UniProt P07333); experiment: In vitro kinase assay for CSF-1R (AlphaScreen); type: biochemical; conditions: tested at about 1 μM; read-out: CSF1RK 1 percent inhibition
T3 construct: Recombinant protein corresponding to the cytoplasmic domain of the human CSF-1R; purchased Invitrogen Corporation, Carlsbad, Calif; PV3249
T3 sequence (P07333 539-972 limits assumed): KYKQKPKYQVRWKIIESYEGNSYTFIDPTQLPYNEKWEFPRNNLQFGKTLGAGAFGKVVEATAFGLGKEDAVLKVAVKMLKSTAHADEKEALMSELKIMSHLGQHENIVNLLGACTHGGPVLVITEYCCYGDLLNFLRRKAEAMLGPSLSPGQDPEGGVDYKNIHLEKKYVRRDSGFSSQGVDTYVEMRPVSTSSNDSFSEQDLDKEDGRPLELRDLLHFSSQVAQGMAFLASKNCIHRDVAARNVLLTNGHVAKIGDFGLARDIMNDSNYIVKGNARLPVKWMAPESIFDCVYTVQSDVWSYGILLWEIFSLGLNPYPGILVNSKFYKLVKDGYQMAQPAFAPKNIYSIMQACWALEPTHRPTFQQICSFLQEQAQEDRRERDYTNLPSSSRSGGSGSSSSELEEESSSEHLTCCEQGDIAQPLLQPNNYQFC
Description: The kinase activity of various protein tyrosine kinases can be measured by providing ATP and a suitable peptide or protein tyrosine-containing substrate, and assaying the transfer of phosphate moiety to the tyrosine residue. Recombinant protein corresponding to the cytoplasmic domain of the human CSF-1R was purchased from Invitrogen Corporation, Carlsbad, Calif. U.S.A. (#PV3249). For each assay, test compounds were serially diluted, starting at 25 μM with 3 fold dilutions, in DMSO in 384 well plates then mixed with an appropriate kinase reaction buffer consisting of 50 mM Hepes, 5 mM MgCl2, 10 mM MnCl2, 0.1% BSA, pH 7.5, 1.0 mM dithiothreitol, 0.01% Tween 80 plus 1 μM ATP. Kinase protein and an appropriate biotinylated peptide substrate at 50 nM were added to give a final volume of 20 μL, reactions were incubated for 2 hours at room temperature and stopped by the addition of 10 μL of 45 mM EDTA, 50 mM Hepes pH 7.5. Added to the stopped reaction mix was 30 μL of PT66 Alphascreen beads (Perkin Elmer, Boston, Mass., U.S.A.). The reaction was incubated overnight and read on the Envision (Perkin Elmer). Phosphorylated peptide product was measured with the AlphaScreen system (Perkin Elmer) using acceptor beads coated with anti-phosphotyrosine antibody PT66 and donor beads coated with streptavidin that emit a fluorescent signal at the 520-620 nm emission wave length if in close proximity. The concentration of each compound for 50% inhibition (IC50) was calculated by non-linear regression using XL Fit data analysis software.
CSF-1R kinase was assayed in 50 mM Hepes pH 7.0, 5 mM MgCl2, 10 mM MnCl2, 1 mM DTT, 1 mg/mL BSA, 1.0 μM ATP, and 0.05 μM biotin-GGGGRPRAATF-NH2 (SEQ ID NO:1) peptide substrate. CSF-1R kinase was added at final concentration of 4 nM.

[2] = tested on: MNFS60 (murine AML cells); experiment: Cell viability assay in MCSF dependent MNFS60 cells (Cell Titer Glo); type: cell-based; conditions: Mus musculus; tested at about 1 μM; MCSF 10 ng/mL, 72 hrs; read-out: CPEC50 MNFS60MCSF percent inhibition
Description: Cell viability was assessed by Cell Titer Glo, Promega. MNFS60 (murine AML cells) were seeded in TC treated 96-well plates at a density of 5,000 cells per well in RPMI-1640, 10% FBS, and 1% Penicillin Streptomycin prior to addition of compound. Test compounds were serially diluted (3 fold) in DMSO to 500× the final concentration. For each concentration of test compound, 2 μl (500×) aliquots of compound or 100% DMSO (control) were diluted in 500 μl of culture medium that contained 2× final concentration of growth factor MCSF for 2× concentration and then diluted 1× on the cells. Final concentration of MCSF is 10 ng/mL. Cells were incubated for 72 hrs at 37° C., 5% CO2. After the incubation 100 μl Cell Titer Glo is added to each well to determine viable cells. The assay was performed according to the manufacturer's instruction (Promega Corporation, Madison, Wis. USA). Each experimental condition was performed in triplicate. Raw data was imported in Abase and EC50s calculated with XL-fit data analysis software: Relative light units of wells that contained cells without MCSF in the media and as a consequence didn't grow were defined as 100% inhibited.

T1 sequence (P09619 600-962 limits assumed): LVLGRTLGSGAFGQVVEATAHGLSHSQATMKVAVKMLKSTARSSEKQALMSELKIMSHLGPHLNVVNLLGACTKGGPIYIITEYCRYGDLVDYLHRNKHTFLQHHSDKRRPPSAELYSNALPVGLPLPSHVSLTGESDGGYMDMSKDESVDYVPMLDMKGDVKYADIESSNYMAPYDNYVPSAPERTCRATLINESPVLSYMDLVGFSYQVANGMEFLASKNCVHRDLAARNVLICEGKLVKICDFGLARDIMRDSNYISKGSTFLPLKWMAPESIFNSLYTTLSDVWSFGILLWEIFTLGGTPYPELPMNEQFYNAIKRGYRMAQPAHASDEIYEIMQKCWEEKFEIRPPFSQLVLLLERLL

| Structure (SMILES) | inhibition at 1 µM (PDGFRb) [%] | inhibition at 1 µM (cKIT) [%] | inhibition at 1 µM [1] [%] | inhibition at 1 µM [2] [%] |
| --- | --- | --- | --- | --- |
| Clc1ccncc1Oc1ccc2nc(NCC3CCCCC3)sc2c1 [Compound 1, 6-(4-chloropyridin-3-yloxy)-N-(cyclohexylmethyl)benzo[d]thiazol-2-amine] | 34 | 66 | 100 | 22 |
| O[C@@H]1CCCC[C@H]1Nc1nc2ccc(Oc3cnccc3Cl)cc2s1 [Compound 7, (1R,2R)-2-(6-(4-chloropyridin-3-yloxy)benzo[d]thiazol-2-ylamino) cyclohexanol] | 11 | 25 | 100 | 42 |
| Nc1cc(Oc2ccc3nc(NCC4CCCCC4)sc3c2)ncn1 [Compound 8, 6-(6-aminopyrimidin-4-yloxy)-N-(cyclohexylmethyl) benzo[d]thiazol-2-amine] | 46 | 75 | 100 | 30 |
| Nc1cc(Oc2ccc3nc(N[C@@H]4CCCC[C@H]4O)sc3c2)ncn1 [Compound 9, (1R,2R)-2-(6-(6-aminopyrimidin-4-yloxy)benzo[d]thiazol-2-ylamino) cyclohexanol] | 2 | 13 | 97 | 15 |
| CNC(=O)c1cc(Oc2ccc3nc(NCC4CCCCC4)sc3c2)nc(OC)n1 [Compound 10, 6-(2-(Cyclohexylmethylamino)benzo[d]thiazol-6-yloxy)-2-methoxy-n-methylpyrimidine-4-carboxamide] | 5 | 16 | 96 | 27 |
| C[C@H](Nc1nc2ccc(Oc3ccc(N)nc3)cc2s1)C1CCCCC1 [Compound 100, (S)-6-(6-aminopyridin-3-yloxy)-N-(1-cyclohexylethyl)benzo[d]thiazol-2-amine] | 31 | 90 | 100 |  |
| Cn1cc(-c2cc(Oc3ccc4nc(N[C@@H]5CCCC[C@H]5O)sc4c3)cnc2Cl)cn1 [Compound 102, (1R,2R)-2-(6-(6-chloro-5-(1-methyl-1H-pyrazol-4-yl)pyridin-3-yloxy)benzo[d]thiazol-2-ylamino)cyclohexanol] | 7 | 11 | 86 |  |
| Nc1ccc(-c2cc(Oc3ccc4nc(N[C@@H]5CCCC[C@H]5O)sc4c3)cnc2Cl)cn1 [Compound 104, (1R,2R)-2-(6-(6′-amino-2-chloro-3,3′-bipyridin-5-yloxy)benzo[d]thiazol-2-ylamino)cyclohexanol] | 15 | 15 | 86 |  |
| O[C@@H]1CCCC[C@H]1Nc1nc2ccc(Oc3cnc(Cl)c(-c4cccnc4)c3)cc2s1 [Compound 105, (1R,2R)-2-(6-(2-chloro-3,3′-bipyridin-5-yloxy)benzo[d]thiazol-2-ylamino) cyclohexanol] | 9 | 9 | 43 |  |
| Cn1cc(-c2cc(Oc3ccc4nc(N[C@@H]5CCCC[C@H]5O)sc4c3)cnc2-c2cnn(C)c2)cn1 [Compound 106, (1R,2R)-2-(6-(5,6-bis(1-methyl-1H-pyrazol-4-yl)pyridin-3-yloxy)benzo[d]thiazol-2-ylamino) cyclohexanol] | 18 | 13 | 81 |  |
| Nc1ccc(-c2cc(Oc3ccc4nc(N[C@@H]5CCCC[C@H]5O)sc4c3)cnc2-c2ccc(N)nc2)cn1 [Compound 108, (1R,2R)-2-(6-(5,6-bis(6-amino-pyridin-3-yl)pyridin-3-yloxy)benzo[d]thiazol-2-ylamino)cyclohexanol] | 23 | 10 | 93 |  |
| O[C@@H]1CCCC[C@H]1Nc1nc2ccc(Oc3cnc(-c4cccnc4)c(-c4cccnc4)c3)cc2s1 [Compound 109, (1R,2R)-2-(6-(5,6-bis(pyridin-3-yl)pyridin-3-yloxy)benzo[d]thiazol-2-ylamino)cyclohexanol] | 16 | 11 | 48 |  |
